Values joined by “and” are separate entries in the source; they are usually repeats but may differ in a detail not shown here. Equal values may be shown once.

One data set addresses T1, YFP-TOP2B (Homo sapiens, UniProt Q02880).
T1 construct: Using recombinant full-length human TOP2A and TOP2B enzymes; expressed in transfected cells; host or cells: HEK293F
Put plainly: FRAP analysis, YFP-TOP2B in HEK293F cells. As to conditions: 0.25 and 1 μM. It is filed as cell-based. The protocol: HEK293F cells were transfected with DNA plasmids encoding yellow-fluorescent protein (YFP)-TOP2A or YFP-TOP2B (the same DNA constructs for mammalian protein expression and purification) using Lipofectamine 2000 (Thermo Fisher Scientific). Cells were cultured for 24 h post transfection and YFP signals were confirmed prior to FRAP experiments. Transfected cells were plated on glass-bottomed culture dishes (Matsunami) and rested overnight. The next day, each dish was pre-incubated with the indicated inhibitor treatment or DMSO control for 15 min prior to FRAP experiment. Each set of experiments was repeated on at least two different days using newly transfected cells each time. Live-cell imaging was done using a LSM 980 microscope (Carl Zeiss Microscopy, LLC). YFP signal was excited at 508 nm at 2% laser power and detected through a 516–604 nm range. A small area within the nucleus (purple box) is manually selected for fluorescence bleaching at 100% laser power for 50 iterations. Inhibition of TOP2 by obex inhibitors was detected by impairment in fluorescence recovery at 15 s post bleaching, as a lack of inhibition allows for TOP2 diffusion throughout the nucleus.

Data set [1] concerns the target T2, TOP2B-DNA covalent complex (Homo sapiens, UniProt Q02880).
T2 construct: endogenous in cells; host or cells: HEK293F
The data set is described as follows: RADAR assay, etoposide-induced TOP2B-DNA covalent complex in HEK293F cells. As to conditions: for TOP2B spot intensity: independent replicates. It is filed as cell-based. The protocol: HEK293F cells were plated at 3 × 10^5 cells per well and grown overnight. […] Upon removal of media, cells in each well were immediately lysed with 750 µL DNAzol (Molecular Research Center, Inc.) and the DNA was precipitated by addition of 375 µL of 100% ethanol. This step was then repeated to eliminate protein aggregates. Precipitate from each sample was pelleted via centrifugation at 4 °C and max speed for 5 min. The pellets were washed twice with buffer containing 20 mM Tris pH 7.5, 1 mM EDTA pH 8.0, 50 mM NaCl, 50% EtOH, and at the end of each wash, centrifugation at 4000 × g for 2 min was repeated to isolate the DNA pellets. The pellets were washed in 75% EtOH and then collected by centrifugation at 4 °C and max speed for 5 min. The supernatant was removed via pipetting, and the remaining pellets were air dried for 5 min before 50 µL 8 mM NaOH and 0.1% Tween-20 was added to each pellet. Once no visible precipitate remained, each mixture was supplemented with 5 µL of Benzonase buffer containing 500 mM Tris pH 8.0, 10 mM MgCl2, 1/1000 Roche complete protease inhibitor cocktail (Millipore Sigma) and 40 units Benzonase (Millipore Sigma) followed by 30 to 60 min incubation at 37 °C until the pellets were fully dissolved. The DNA content from each sample was quantified on a nanodrop, and 10 µg of DNA was diluted to a final volume of 200 µL in 8 mM NaOH and 0.1% Tween. The samples were applied over the Whatman Minifold I dot blot apparatus (Cytiva) and collected on a PVDF membrane (Thermo Fisher Scientific). The membrane was washed three times with 8 mM NaOH and 0.1% Tween-20 solution prior to removal and blocking with the same wash solution containing 1 mg/mL BSA. Western blotting was carried out on an iBind (Thermo Fisher Scientific) and TOP2 proteins were detected using isoform-specific antibody against full length TOP2A (1:250 dilution; HT2A21, Inspiralis) and TOP2B (1:500 dilution; 611493, BD Biosciences) and visualized with anti-rabbit (1:1000 dilution; 926-68071, LI-COR Bio) and anti-mouse (1:1000 dilution; 926-32210, LI-COR Bio) secondary antibodies in iBind running buffer. The blots were imaged on a LI-COR Odyssey Fc and analysed using ImageStudio. Each presented data point was obtained from distinct sample.

Data set [2] in a line: Plasma pharmacokinetics in rabbits (LC-MS/MS). The class given is in vivo, rabbit. As for the experimental part:
Six rabbits were used to determine the plasma pharmacokinetics of topobexin (9). The compound was used as a dihydrochloride and was dissolved right before administration in sterile saline (10 mg of free base/ml); pH was optimized using NaOH and the solution was filtered through an antimicrobial filter (0.22 µm porosity, Carl Roth GmbH + Co. KG, Germany). The drug was administered i.v. using marginal ear vein at 10 mg/kg (counted as a free base) in a 20 min infusion. The dose, route of administration, and timing of infusion were determined based on preliminary pharmacokinetic experiments. Blood for pharmacokinetic analysis was collected from the central artery in the contralateral ear before drug administration (blank) and in preselected time intervals after drug administration (5 min to 10 h). Blood was collected in BD Vacutainer tubes (BD Biosciences, Plymouth, UK) containing lithium heparin. All samples were immediately centrifuged (5 min, 3000 × g), plasma was harvested and frozen immediately in liquid nitrogen and the samples were stored at -80 °C until analysis.
The concentration of topobexin (9) was determined in plasma samples using an analytical method developed and validated for this purpose. Briefly, rabbit plasma (50 μl) was spiked with internal standard (compound 14), precipitated with ice-cold acetonitrile (200 μl), vortexed (30 s), and centrifuged (10 min, 9520 × g, 4 °C). The resulting supernatant was filtered through a 0.45 μm porosity filter (Milex – Hv, Merck Milipore, Darmstadt, Germany) and analyzed using UHPLC-MS. Agilent 1290 Infinity II LC with Triple Quad LC/MS (6400 series), a Jet Stream Electrospray and Mass Hunter software (Agilent, Santa Clara, CA, USA) were used for the analyzes and data treatment, respectively. Chromatographic separation was achieved on the Zorbax Eclipse Plus C18 column (50 × 2.1 mm, 1.8 μm, […], Dublin, Ireland). The mobile phase composed of part A (0.0025% formic acid) and part B (acetonitrile) was mixed in the following gradient: 0–1 min (10% B), 1–3 (10–60% B), 3–3.5 min (60% B), 3.51–5 min (80% B), 5.01–6 min (10% B). The flow rate of mobile phase was 0.3 mL/min and 2 μL of the sample were injected onto the column. The linearity of the method was verified within the concentration range of 1 to 1000 nM topobexin (9) in rabbit plasma.

A further data set in a line: Aqueous solubility. It is filed as physicochemical. Particulars: limited evaluation to ≤ 10 μM.
The mark [3] stands for this setting: iv, rabbit plasma, 10 mg/kg, 20 min i.v. infusion.

T2 sequence (Q02880 2-1626 limits assumed, one chain of several): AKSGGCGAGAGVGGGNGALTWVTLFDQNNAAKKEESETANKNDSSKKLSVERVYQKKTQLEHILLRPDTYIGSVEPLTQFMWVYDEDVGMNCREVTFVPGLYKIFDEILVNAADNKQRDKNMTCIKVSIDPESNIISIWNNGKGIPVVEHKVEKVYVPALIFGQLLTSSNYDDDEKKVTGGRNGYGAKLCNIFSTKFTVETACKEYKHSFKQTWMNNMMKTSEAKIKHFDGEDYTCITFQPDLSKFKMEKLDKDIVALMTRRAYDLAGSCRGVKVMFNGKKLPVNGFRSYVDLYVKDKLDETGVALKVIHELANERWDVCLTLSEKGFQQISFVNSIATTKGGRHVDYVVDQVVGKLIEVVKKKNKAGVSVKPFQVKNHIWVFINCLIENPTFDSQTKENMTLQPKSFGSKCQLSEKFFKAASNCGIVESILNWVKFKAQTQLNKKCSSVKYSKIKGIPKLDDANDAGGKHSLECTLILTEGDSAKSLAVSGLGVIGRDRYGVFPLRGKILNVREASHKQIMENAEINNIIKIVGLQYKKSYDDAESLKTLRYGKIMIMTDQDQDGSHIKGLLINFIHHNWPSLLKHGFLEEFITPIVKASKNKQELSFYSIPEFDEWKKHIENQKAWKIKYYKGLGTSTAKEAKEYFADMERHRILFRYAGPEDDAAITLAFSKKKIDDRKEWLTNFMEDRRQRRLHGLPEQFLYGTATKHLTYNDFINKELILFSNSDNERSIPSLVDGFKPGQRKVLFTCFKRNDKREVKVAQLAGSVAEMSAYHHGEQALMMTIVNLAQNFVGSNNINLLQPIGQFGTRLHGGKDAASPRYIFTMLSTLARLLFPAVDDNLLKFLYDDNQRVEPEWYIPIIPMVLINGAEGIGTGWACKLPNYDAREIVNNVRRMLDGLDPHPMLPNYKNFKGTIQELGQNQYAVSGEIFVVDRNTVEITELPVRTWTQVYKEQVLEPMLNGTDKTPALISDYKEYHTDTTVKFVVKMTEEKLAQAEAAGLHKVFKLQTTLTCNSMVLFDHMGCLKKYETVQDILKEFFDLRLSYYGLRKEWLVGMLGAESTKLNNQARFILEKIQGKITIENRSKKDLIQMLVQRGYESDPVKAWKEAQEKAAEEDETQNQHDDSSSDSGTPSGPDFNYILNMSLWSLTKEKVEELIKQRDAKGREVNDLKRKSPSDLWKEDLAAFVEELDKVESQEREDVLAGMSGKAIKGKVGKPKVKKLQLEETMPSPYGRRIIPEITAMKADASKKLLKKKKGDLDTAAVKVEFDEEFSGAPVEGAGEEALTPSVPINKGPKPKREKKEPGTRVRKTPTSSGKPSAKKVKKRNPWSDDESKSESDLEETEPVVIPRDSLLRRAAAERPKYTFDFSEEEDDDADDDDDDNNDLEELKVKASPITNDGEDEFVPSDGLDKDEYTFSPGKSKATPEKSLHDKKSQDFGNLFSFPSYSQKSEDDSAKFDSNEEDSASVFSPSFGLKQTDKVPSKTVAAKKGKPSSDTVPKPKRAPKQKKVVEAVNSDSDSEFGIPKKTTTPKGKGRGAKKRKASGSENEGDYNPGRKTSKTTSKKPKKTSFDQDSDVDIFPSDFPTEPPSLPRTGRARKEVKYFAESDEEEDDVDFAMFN
T1 sequence (Q02880 1-1621 isoform Q02880-2): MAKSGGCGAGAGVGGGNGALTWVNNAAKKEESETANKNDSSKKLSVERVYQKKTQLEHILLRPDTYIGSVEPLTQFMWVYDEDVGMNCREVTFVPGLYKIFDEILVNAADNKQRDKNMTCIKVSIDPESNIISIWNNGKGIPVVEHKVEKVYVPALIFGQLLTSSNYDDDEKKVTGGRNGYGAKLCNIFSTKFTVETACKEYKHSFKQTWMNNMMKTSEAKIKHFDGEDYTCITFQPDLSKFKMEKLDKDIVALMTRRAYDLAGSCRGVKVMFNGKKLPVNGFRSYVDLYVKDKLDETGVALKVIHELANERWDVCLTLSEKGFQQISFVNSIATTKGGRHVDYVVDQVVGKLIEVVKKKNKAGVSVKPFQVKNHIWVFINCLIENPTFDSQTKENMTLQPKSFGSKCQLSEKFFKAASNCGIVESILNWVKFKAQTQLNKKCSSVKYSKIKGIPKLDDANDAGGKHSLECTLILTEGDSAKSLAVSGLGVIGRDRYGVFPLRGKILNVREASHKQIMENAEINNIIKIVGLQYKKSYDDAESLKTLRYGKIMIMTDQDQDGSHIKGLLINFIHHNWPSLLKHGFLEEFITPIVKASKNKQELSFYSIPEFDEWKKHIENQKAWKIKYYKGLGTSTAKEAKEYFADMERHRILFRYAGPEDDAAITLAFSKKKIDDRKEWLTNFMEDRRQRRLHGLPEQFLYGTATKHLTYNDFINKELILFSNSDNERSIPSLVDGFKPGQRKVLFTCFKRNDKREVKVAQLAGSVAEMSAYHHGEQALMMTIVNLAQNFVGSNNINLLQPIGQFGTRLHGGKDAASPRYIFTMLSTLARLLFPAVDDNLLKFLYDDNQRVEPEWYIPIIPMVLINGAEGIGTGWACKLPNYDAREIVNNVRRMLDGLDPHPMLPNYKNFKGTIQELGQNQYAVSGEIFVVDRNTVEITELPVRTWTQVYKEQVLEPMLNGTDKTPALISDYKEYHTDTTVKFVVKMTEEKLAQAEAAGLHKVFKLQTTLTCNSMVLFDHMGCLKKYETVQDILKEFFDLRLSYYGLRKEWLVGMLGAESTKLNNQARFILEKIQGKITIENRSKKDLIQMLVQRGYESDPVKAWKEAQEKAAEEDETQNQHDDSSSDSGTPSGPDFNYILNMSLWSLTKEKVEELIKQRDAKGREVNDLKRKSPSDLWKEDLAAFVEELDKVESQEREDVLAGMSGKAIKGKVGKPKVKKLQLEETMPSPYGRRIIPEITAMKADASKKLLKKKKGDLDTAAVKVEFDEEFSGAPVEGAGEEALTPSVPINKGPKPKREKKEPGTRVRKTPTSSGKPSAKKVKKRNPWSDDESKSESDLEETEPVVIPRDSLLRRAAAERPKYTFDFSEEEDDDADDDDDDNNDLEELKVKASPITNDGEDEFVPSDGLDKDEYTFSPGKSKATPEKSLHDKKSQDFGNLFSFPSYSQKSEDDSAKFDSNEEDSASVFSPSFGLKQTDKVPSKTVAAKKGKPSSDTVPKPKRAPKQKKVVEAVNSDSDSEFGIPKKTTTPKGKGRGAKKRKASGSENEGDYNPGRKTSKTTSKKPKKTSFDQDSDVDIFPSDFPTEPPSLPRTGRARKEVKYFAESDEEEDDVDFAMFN

`CCCc1cc(=O)oc2c(C(=O)N3CCCc4ccccc43)c(OCCN3CCN(C)CC3)ccc12` [topobexin (9)]: the “recovery of fluorescence for TOP2B in photobleached area” value at YFP-TOP2B was “impaired”. For the same molecule, the TOP2B spot intensity in data set [1] (Cmpd 9 0.1 μM + etoposide 5 μM) is 104.7 and 108 and 35.48 and 44.18 and 86.39; in data set [1] (Cmpd 9 1 μM + etoposide 5 μM), 30.03 and 46.96 and 8.418 and 33.86 and 32.47; in data set [1] (Cmpd 9 10 μM + etoposide 5 μM), 9.497 and 0.7143 and 3.351 and 13.57 and 7.34; in data set [1] (Cmpd 9 10 μM, etoposide 0, background subtracted), 0.7839 and 1.705 and 2.435 and 8.291 and 6.459. In addition, in data set [1] (etoposide-induced, HEK293F), the “concentration significantly reducing TOP2B-DNA CC” value is 1 µM. Also, the Plasma concentration in data set [2] (10 min, individual subjects) was 9.134 µM and 17.429 µM and 15.678 µM and 15.114 µM and 12.648 µM; in data set [2] (20 min, individual subjects) it was 11.689 µM and 11.373 µM and 12.322 µM and 16.573 µM and 12.398 µM; in data set [2] (40 min, individual subjects), 4.374 µM and 4.139 µM and 3.247 µM and 3.779 µM and 3.693 µM; in data set [2] (60 min, individual subjects), 1.755 µM and 3.643 µM and 3.122 µM and 2.610 µM and 3.293 µM and 2.847 µM; in data set [2] (120 min, individual subjects), 1.524 µM and 1.569 µM and 1.234 µM and 1.184 µM and 1.188 µM; in data set [2] (240 min, individual subjects), 0.456 µM and 0.440 µM and 0.629 µM and 0.503 µM and 0.425 µM. Further, the Plasma concentration is 0.161 µM and 0.144 µM and 0.140 µM and 0.225 µM and 0.134 µM in data set [2] (360 min, individual subjects); 0.110 µM and 0.051 µM and 0.053 µM and 0.103 µM and 0.049 µM in data set [2] (480 min, individual subjects); 0.019 μM (2×) and 0.026 μM (2×) and 0.018 μM in data set [2] (600 min, individual subjects); 7.668 µM and 14.456 µM and 10.833 µM and 11.650 µM and 11.714 µM in data set [2] (rabbit, 10 mg/kg 20 min i.v. infusion, 5 min, individual subjects, 10 mg/kg). Besides, the peak concentration (Cmax) in data set [2] (setting [3]) amounted to 13.5 ± 3.2 µM. The time of peak concentration (Tmax) in data set [2] (setting [3]) is 10 min. Also, in data set [2] (plasma), the “concentrations present in rabbits during daunorubicin administration” value is no more than 3 µM. For the same molecule, the “time with plasma concentration ≥ 1 μM” value in data set [2] (rabbit, 10 mg/kg, 20 min i.v. infusion) stood at 2.5 h. This molecule displayed a concentration at 10 min in data set [2] (rabbit, plasma, intravenous, 10 mg/kg, 10 min, individual subjects) of 10.8 µM. The same molecule gave a concentration at 20 min in data set [2] (rabbit, plasma, intravenous, 10 mg/kg, 20 min, individual subjects) of 10.5 µM. This molecule displayed a concentration at 40 min in data set [2] (rabbit, plasma, intravenous, 10 mg/kg, 40 min, individual subjects) of 3.47 µM. The concentration at 120 min in data set [2] (rabbit, plasma, intravenous, 10 mg/kg, 120 min, individual subjects) amounted to 1.32 µM. In data set [2] (rabbit, plasma, intravenous, 10 mg/kg, 240 min, individual subjects), this molecule had a concentration at 240 min of 0.429 µM. In data set [2] (rabbit, plasma, intravenous, 10 mg/kg, 360 min, individual subjects), this molecule returned a concentration at 360 min of 0.155 µM. Besides, the concentration at 600 min in data set [2] (rabbit, plasma, intravenous, 10 mg/kg, 600 min, individual subjects) is 0.025 µM. The same molecule showed a concentration at 5 min in data set [2] (rabbit, plasma, iv, 10 mg/kg, 10 mg/kg 20 min i.v. infusion, 5 min, individual subjects) of 11.1 µM.

In the case of `CCCc1cc(=O)oc2c(C(=O)N3CCCc4ccccc43)c(OC)cc(OC)c12` [BNS-22], the “solubility in aqueous environment” value in the data set “Aqueous solubility” is “poor solubility in aqueous environment”.

(Values after article PMC12116762, “Topobexin targets the Topoisomerase II ATPase domain for beta isoform-selective inhibition and anthracycline cardioprotection” (Nature Communications, 2025).)
